Key:
[1] = parameters: method as in Narasimhan et al., 2013; conditions: ref Narasimhan et al., 2013, cited from earlier work
in vivo [2] = conditions: for Cmax / half-life: male, hCYP1A1/1A2 humanized, mouse, in vivo, po, 40 mg/kg, ponatinib 40 mg/kg oral gavage; for Cmax: hCYP1A1/1A2 mice; for half-life: t1/2, hCYP1A1/1A2 mice
Method: All animal work was carried out on 8- to 12-week-old male mice. 3-Methylcholanthrene (3-MC) was suspended in corn oil at 4 mg/ml for administration by intraperitoneal injection at 40 mg/kg (10 μl/g body weight) daily for 3 days for hCYP1A1/2 mice. TCDD was suspended in corn oil at 1 µg/ml for administration by intraperitoneal injection at 10 µg/kg (10 μl/g body weight) daily for 3 days for wild-type (WT) mice. […] For blood sample collection, 10 μl of whole blood was withdrawn from the tail vein at the indicated time points. Samples were immediately added to a tube containing heparin solution (10 μl, 15 IU/ml), put into liquid nitrogen, and then stored at −80°C until processing. On the day of analysis, acetonitrile (80 µl containing 200 ng/ml triazolam) was added to thawed samples, which were shaken for 15 minutes, centrifuged for 10 minutes at 16,000g, and analyzed. […] An aliquot of 0.25 g was extracted with 1 ml of 80% methanol for 30 minutes on a vortex evaporator (Labconco, Kansas City, MO). After centrifugation (30 minutes at 4000g), the solvent of a 800 μl aliquot of the supernatant was removed by speed vacuum, followed by reconstitution in 500 μl methanol and water (50/50, v/v), and analyzed by LC-MRM.
Analysis of in vitro incubation and in vivo blood PK samples was carried out by ultra-performance LC-MS/MS using the Waters Acquity UPLC (Micromass, Manchester, United Kingdom) and Micromass Quattro Premier Mass Spectrometer with electrospray ionization. The chromatography was performed using a C18 column (Kinetex 1.7 µ 100 A; 50 × 2.1 mm; Phenomenex, Macclesfield, United Kingdom) at a temperature of 45°C with mobile phases of 0.1% formic acid (A) and acetonitrile and 0.1% formic acid (B). A gradient at a flow rate of 0.5 ml/min was run over 3 minutes as follows: 0–0.5 minutes, 95% A; 0.5–0.75 minutes, 95%–67.5% A; 0.75–1.50 minutes, 67.5% A, 1.50–2.00 minutes, 67.5%–50% A; 2.00–2.50 minutes, 50%–5% A; and then returning to the initial conditions for a final 0.5 minutes. The cone voltage and collision energy were optimized for each substrate and MRM data were acquired (Supplemental Table 1).
In the present study, the absolute concentrations of the metabolites in the incubation mixture could not be determined because of the lack of authentic standards. Therefore, the relative activity of the P450s was presented by comparing the concentration of the metabolite in a sample with the concentration of the same metabolite in the sample that had the highest response under the same experimental condition ([Yu et al., 2010]). The relative activity of the P450s toward metabolite formation could be calculated according to the ratio of the metabolite concentration to that in the sample with highest mass response. The PK parameters of in vivo data were calculated with a simple noncompartmental model using the WinNonLin software, version 4.1 (Pharsight (Certara, Cambridge, UK)) and are shown with the S.D. values. The P values were calculated using an unpaired t test; *P < 0.05, **P < 0.01, ***P < 0.001.

[3] = test system: human recombinant P450 enzymes; assay: Ponatinib biotransformation by panel of 11 human recombinant P450 enzymes; type: in vitro ADME; conditions: ponatinib 50 µM, P450 100 nM, panel of 11 enzymes
Method: All incubations were performed at 37°C and 300 rpm in a thermomixer. Human cDNA-expressed P450 isoenzymes coexpressed with human NADPH P450 oxidoreductase (see Supplemental Fig. 1 for CYP:oxidoreductase ratio data) were carefully thawed on ice prior to the experiment. […] After 5-minute preincubation at 37°C, the incubation reactions were initiated by addition of a NADPH regenerating system (final concentration: 1.3 mM NADPH, 4 mM glucose-6-phosphate, and 2 unit/ml glucose-6-phosphate dehydrogenase). After 5–120 minutes, an aliquot of 100 µl of reaction mixture was quenched with same volume of cold acetonitrile containing 400 ng/ml of triazolam as the internal standard. […] An aliquot of the supernatant fraction was analyzed by liquid chromatography (LC)–tandem mass spectrometry (MS), i.e., LC-MS/MS. […]
In the present study, the absolute concentrations of the metabolites in the incubation mixture could not be determined because of the lack of authentic standards. […] The relative activity of the P450s toward metabolite formation could be calculated according to the ratio of the metabolite concentration to that in the sample with highest mass response. The PK parameters of in vivo data were calculated with a simple noncompartmental model using the WinNonLin software, version 4.1 (Pharsight (Certara, Cambridge, UK)) and are shown with the S.D. values. […]

mGstp1 = molecular target: T1, mGstp1 (Mus musculus, UniProt P19157); assay: Protein adducts of ponatinib with mGstp1 in the presence of human recombinant CYP1A1 (LC-MS/MS of tryptic digests); type: in vitro ADME; conditions: ponatinib 50 µM, CYP1A1, 10 µg/ml mGstp1, 80 minutes
T1 construct: made in house
Method: The incubation was started by the addition of a NADPH-regenerating system (final concentration: 1.3 mM NADPH, 4 mM glucose-6-phosophate, 2 U/ml glucose-6-phosphate dehydrogenase, and 3.3 mM […]) and allowed to proceed at 37°C for 80 minutes. The reaction was terminated by cooling on ice, and the E. coli membrane containing human recombinant CYP1A1 was removed by ultracentrifugation at 41,000g at 4°C for 80 minutes. […] The solvent was exchanged to 50 mM ammonium bicarbonate and further concentrated to 100 µl.
Aliquots of the solution (10 µl) were mixed with 10 μl of 4× NuPAGE lithium dodecyl sulfate loading buffer (Invitrogen, Carsbad, CA) by incubation at 95°C for 5 minutes and then subjected to SDS-PAGE on a NuPAGE Novex 10% Bis-Tris mini gel (Invitrogen NP0341BOX). After electrophoresis at a constant 180 V for 30 minutes, gels were stained with Coomassie Blue. Bands (20–25 kDa) containing mGstp1 were cut from the gel, and after removing the Coomassie Blue from the gel by adding 100 mM ammonium bicarbonate/acetonitrile (1:1, v/v) and subsequently dehydrating with 100% acetonitrile, the solvent was removed from the gel pieces under vacuum. The residue was resuspended in 0.01 μg/μl MS grade trypsin (Promega, Madison, WI) in 25 mM ammonium bicarbonate and incubated at 37°C overnight. […]

[4] = WT mice treated with TCDD versus vehicle
[5] = cited from earlier work
[6] = human; cited from earlier work
in vivo [7] = conditions: male, mouse, plasma, po, 40 mg/kg, ponatinib 40 mg/kg oral gavage; for Cmax: WT mice
[8] = concurrent therapy with ketoconazole (a CYP3A4 inhibitor), ref Narasimhan et al., 2013; cited from earlier work
[9] = hCYP1A1/1A2 mice treated with 3-MC versus vehicle
[10] = 3-MC pretreatment (40 mg/kg i.p. daily for 3 days)
[11] = ponatinib treatment, ref Cortes et al., 2012

T1 sequence (P19157 2-210 limits assumed): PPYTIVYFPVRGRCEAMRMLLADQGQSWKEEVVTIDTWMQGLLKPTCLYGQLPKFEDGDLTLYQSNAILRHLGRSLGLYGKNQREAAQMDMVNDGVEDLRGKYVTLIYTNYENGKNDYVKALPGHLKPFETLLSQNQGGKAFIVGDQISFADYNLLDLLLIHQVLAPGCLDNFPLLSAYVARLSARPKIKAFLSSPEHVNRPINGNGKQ

Cc1ccc(C(=O)O)cc1C#Cc1cnc2cccnn12 [AP24600]
activity of metabolite ([1]; esterase/amidase product): inactive

Cc1ccc(C(=O)Nc2ccc(CN3CCNCC3)c(C(F)(F)F)c2)cc1C#Cc1cnc2cccnn12 [N-desmethyl]
potency relative to ponatinib (fold less potent) [1]: 4 fold

Cc1ccc(C(=O)Nc2ccc(CN3CCN(C)CC3)c(C(F)(F)F)c2)cc1C#Cc1cnc2cccnn12 [ponatinib, 3-[2-(imidazo[1,2-b]pyridazin-3-yl)ethynyl]-4-methyl-N-4-[(4-methylpiperazin-1-yl)methyl]-3-(trifluoromethyl)phenylbenzamide]
reduction in AUC0–8 hours (in vivo [2]; [9]): 54% | reduction in half-life (in vivo [2]; [9]): 67% | Cmax (in vivo [2]; [10]): 620 ± 245 ng/mL | Cmax (in vivo [2]; vehicle pretreatment): 705 ± 96 ng/mL | half-life (in vivo [2]; [10]): 276 ± 48 min | half-life (in vivo [2]; vehicle pretreatment): 834 ± 102 min | P450 enzymes metabolizing ponatinib, disappearance of the parent drug [3]: principally metabolized via CYP3A4 and CYP1A1 | covalent ponatinib adducts on mGstp1 cysteine residues (mGstp1): ponatinib-Gstp adducts had been formed on Cys-14 and Cys-47 | decrease in the ponatinib half-life [4]: 62% | reduction in the AUC0–8 hours value [4]: 87% | alanine aminotransferase elevation, patients in clinical trials ([5]; clinical trials): 10.5% | aspartate aminotransferase elevation, patients in clinical trials ([5]; clinical trials): 8.2% | neutropenia, patients [5, 11]: 19% | thrombocytopenia, patients [5, 11]: 37% | plasma half-life (t1/2) [6]: ~24 h | Cmax (in vivo [7]; TCDD pretreatment (10 µg/kg i.p. daily for 3 days)): 253 ± 42 ng/mL | Cmax (in vivo [7]; vehicle pretreatment): 1210 ng/mL | half-life (in vivo [7]; t1/2, WT mice, vehicle pretreatment): 372 ± 12 min | change of ponatinib AUC0–∞, AUC0–t and Cmax values [8]: significantly increased

Source: paper PMC5596814 (The Journal of Pharmacology and Experimental Therapeutics, 2017)
